The results in this text go back to US12286440B2, “Penam derivative or salt thereof, pharmaceutical composition, and applications thereof” (priority 2018, dated 2025).

Values after ≈ are worked out from the molar mass of the structure shown.

Assay in all cases: Antibacterial activity evaluation test, MIC by CLSI broth microdilution
Assay type in all cases: cell-based
Conditions in all cases: cation-adjusted Mueller Hinton medium, 35° C., 16 to 20 hours
(In general: Dilution methods test growth across graded concentrations, often in twofold steps.)

Assay [1] has as its system AmpC-derepressed Pseudomonas aeruginosa mutant strain (S-3028). The protocol:
(§1) The minimum inhibitory concentration (MIC) was measured according to the Clinical and Laboratory Standards Institute (CLSI) standard method by using the following broth microdilution method.
(§2) As bacteria, a Pseudomonas aeruginosa strain ATCC27853, an AmpC-derepressed Pseudomonas aeruginosa mutant strain (S-3028), an IMP-1-containing Pseudomonas aeruginosa strain (S-2838), a VIM-2-containing Pseudomonas aeruginosa strain (S-3779), a GES-19 and GES-20-containing Pseudomonas aeruginosa strain (S-3759), a CTX-M-15-containing Escherichia coli strain (TK-1747), a KPC-2-containing Klebsiella pneumoniae strain (Y-995), an OXA-48-containing Klebsiella pneumoniae strain (Y-1062), and an NDM-1-containing Klebsiella pneumoniae strain (Y-1007) were used. The test bacterial cells that had been cultured overnight on a Mueller Hinton agar medium were scraped off, suspended at a density equivalent to 0.5 McFarland standard, and diluted 10-fold, thereby obtaining an inoculum. A cation-adjusted Mueller Hinton medium containing a test compound was inoculated with 0.005 mL of the inoculum, and the cells were cultured at 35° C. for 16 to 20 hours. The minimum drug concentration at which the growth of bacteria was not visually observed was defined as MIC […].
(§3) An antibacterial activity evaluation test was performed in the same manner as in Test Example 1.

Assay [2] has as its system CTX-M-15-containing Escherichia coli strain (TK-1747). The protocol: as §1, §2, §3
Assay [3] relates to GES-19 and GES-20-containing Pseudomonas aeruginosa strain (S-3759). The protocol:
as §1, §2, §3

Assay [4] relates to IMP-1-containing Pseudomonas aeruginosa strain (S-2838). The protocol: as §1, §2, §3
The test system of assay [5] is KPC-2-containing Klebsiella pneumoniae strain (Y-995). The method, then: as §1, §2, §3
Assay [6] has as its system NDM-1-containing Klebsiella pneumoniae strain (Y-1007). The method, then: as §1, §2, §3
For assay [7], the system named is OXA-48-containing Klebsiella pneumoniae strain (Y-1062). The method, then: as §1, §2, §3
For assay [8], the system named is Pseudomonas aeruginosa strain ATCC27853. The method, then: as §1, §2, §3
Assay [9] has as its system VIM-2-containing Pseudomonas aeruginosa strain (S-3779). The protocol: as §1, §2, §3

`Nc1nc(/C(=N/OC2(C(=O)O)CCC2)C(=O)N[C@@H]2C(=O)N3C[C@@](C(=O)O)(N4CCN(NC(=O)C(=O)c5ccc(O)c(O)c5Cl)C4=O)S[C@H]23)cs1` [Example 19, (3R,5R,6R)-6-((Z)-2-(2-aminothiazol-4-yl)-2-((1-carboxycyclobutoxy)imino)acetamido)-3-(3-(2-(2-chloro-3,4-dihydroxyphenyl)-2-oxoacetamido)-2-oxoimidazolidin-1-yl)-7-oxo-4-thia-1-azabicyclo[3.2.0]heptane-3-carboxylate] returned an MIC, Pseudomonas aeruginosa S-3028 in assay [1] of 2 µg/mL (≈ 2.66 µM). This compound showed an MIC, Escherichia coli TK-1747 in assay [2] of 0.5 µg/mL (≈ 0.664 µM). In [3], this compound came in with an MIC, Pseudomonas aeruginosa S3759 of 0.25 µg/mL (≈ 0.332 µM). For the same compound, in assay [4], the MIC, Pseudomonas aeruginosa S-2838 was 0.25 µg/mL (≈ 0.332 µM). In assay [5], the MIC, Klebsiella pneumoniae Y-995 was determined as 0.25 µg/mL (≈ 0.332 µM). The compound further returned an MIC, Klebsiella pneumoniae Y-1007 in [6] below 0.06 µg/mL. This compound registered an MIC, Klebsiella pneumoniae Y-1062 in [7] of 0.12 µg/mL (≈ 0.159 µM). In assay [8], this compound displayed an MIC, Pseudomonas aeruginosa ATCC 27853 of 0.25 µg/mL (≈ 0.332 µM). The MIC, Pseudomonas aeruginosa S-3779 in assay [9] is 0.25 µg/mL (≈ 0.332 µM).

Take `CC(C)(O/N=C(\C(=O)N[C@@H]1C(=O)N2C[C@@](C(=O)O)(N3CCN(NC(=O)C(=O)NCCNC(=O)c4ccc(O)c(O)c4Cl)C3=O)S[C@H]12)c1csc(N)n1)C(=O)O` [Example 68, (3R,5R,6R)-6-((Z)-2-(2-aminothiazol-4-yl)-2-(((2-carboxypropan-2-yl)oxy)imino)acetamido)-3-(3-(2-((2-(2-chloro-3,4-dihydroxybenzamido)ethyl)amino)-2-oxoacetamido)-2-oxoimidazolidin-1-yl)-7-oxo-4-thia-1-azabicyclo[3.2.0]heptane-3-carboxylate]: the MIC, Pseudomonas aeruginosa S-3028 in assay [1] came out at 0.25 µg/mL (≈ 0.302 µM). This compound also yielded an MIC, Escherichia coli TK-1747 in assay [2] of 1 µg/mL (≈ 1.21 µM). The MIC, Pseudomonas aeruginosa S3759 in assay [3] came out at 4 µg/mL (≈ 4.84 µM). The compound further came in with an MIC, Pseudomonas aeruginosa S-2838 in assay [4] of 1 µg/mL (≈ 1.21 µM). Moreover, the MIC, Klebsiella pneumoniae Y-995 in [5] was found to be 0.5 µg/mL (≈ 0.604 µM). Moreover, in assay [6], the MIC, Klebsiella pneumoniae Y-1007 was below 0.06 µg/mL. Moreover, the MIC, Klebsiella pneumoniae Y-1062 in assay [7] was found to be 1 µg/mL (≈ 1.21 µM). This compound gave an MIC, Pseudomonas aeruginosa ATCC 27853 in [8] of 1 µg/mL (≈ 1.21 µM). In assay [9], this compound had an MIC, Pseudomonas aeruginosa S-3779 of 2 µg/mL (≈ 2.42 µM).
